Measurements: ChEMBL document CHEMBL1152190, “Synthesis of spiro-1,2-dioxolanes and their activity against Plasmodium falciparum” (Bioorg Med Chem Lett, 2008)
Activity calls are given as the source filed them. No cut-off for these calls is given here.

Legend:
Plasmodium falciparum [1] = test: Antimalarial activity as reduced parasitaemia after 72 hrs against chloroquine-sensitive Plasmodium falciparum 3D7 in human erythrocytes by DAPI stain; type: functional, organism-based; conditions: 3D7, 72 h
Plasmodium falciparum [2] = test: Antimalarial activity as reduced parasitaemia after 72 hrs against chloroquine-resistant Plasmodium falciparum Dd2 in human erythrocytes by DAPI stain; type: functional, organism-based; conditions: Dd2, 72 h
Heme = test: Inhibition of heme crystallization by parasite-independent assay; type: functional
Plasmodium falciparum [3] = test: Antimalarial activity as reduced parasitaemia after 72 hrs against chloroquine-resistant Plasmodium falciparum 7G8 in human erythrocytes by DAPI stain; type: functional, organism-based; conditions: 7G8, 72 h
Plasmodium falciparum [4] = test: Antimalarial activity as reduced parasitaemia after 72 hrs against chloroquine-resistant Plasmodium falciparum FCB in human erythrocytes by DAPI stain; type: functional, organism-based
Plasmodium falciparum [5] = test: Antimalarial activity as reduced parasitaemia after 72 hrs against chloroquine-resistant Plasmodium falciparum 106/1 in human erythrocytes by DAPI stain; type: functional, organism-based; conditions: 106/1, 72 h
Plasmodium falciparum [6] = test: Antimalarial activity against Plasmodium falciparum K1; type: functional, organism-based
Plasmodium falciparum [7] = test: Antimalarial activity against Plasmodium falciparum NF54; type: functional, organism-based

CC1(CC(=O)NCc2ccc(-c3ccccc3)cc2)CC2(CCCCC2)OO1 (stereo unspecified)
EC50 (Plasmodium falciparum [1]): 100 nM | EC50 (Plasmodium falciparum [2]): 77 nM | Activity (Heme): inactive

CCNC(=O)CC1(C)CC2(CCCCC2)OO1 (stereo unspecified)
EC50 (Plasmodium falciparum [1]): 485 nM | EC50 (Plasmodium falciparum [2]): 99 nM | EC50 (Plasmodium falciparum [3]): 83 nM | EC50 (Plasmodium falciparum [4]): 356 nM | EC50 (Plasmodium falciparum [5]): 142 nM

CC1CCC2(CC1)CC(C)(CCOCc1ccccc1)OO2 (mixture of isomers)
EC50 (Plasmodium falciparum [1]): 545 nM | EC50 (Plasmodium falciparum [2]): 59 nM | Activity (Heme): inactive

CC(=O)OCCC1(C)CC2(CCCC(C)C2)OO1 (mixture of isomers)
EC50 (Plasmodium falciparum [1]): 109 nM | EC50 (Plasmodium falciparum [2]): 114 nM | Activity (Heme): inactive

CC1(CC(=O)NCC2C3CC4CC(C3)CC2C4)CC2(CCCCC2)OO1 (stereo unspecified)
EC50 (Plasmodium falciparum [1]): 81 nM | EC50 (Plasmodium falciparum [2]): 57 nM | Activity (Heme): inactive

O=C(CN1CCC2(CCCCC2)C1)NCCNc1ccnc2cc(Cl)ccc12
EC50 (Plasmodium falciparum [1]): 69 nM | EC50 (Plasmodium falciparum [2]): 78 nM | Activity (Heme): inactive | EC50 (Plasmodium falciparum [3]): 91 nM | EC50 (Plasmodium falciparum [4]): 80 nM | EC50 (Plasmodium falciparum [5]): 53 nM

C1CCC2(CC1)CC1(OO2)C2CC3CC(C2)CC1C3 (stereo unspecified)
Activity (Heme): inactive | EC50 (Plasmodium falciparum [6]): > 2000 nM | EC50 (Plasmodium falciparum [7]): > 2000 nM

CC1(CC(=O)NCCNc2ccnc3cc(Cl)ccc23)CC2(CCCCC2)OO1 (stereo unspecified)
EC50 (Plasmodium falciparum [1]): 5 nM | EC50 (Plasmodium falciparum [2]): 6 nM | Activity (Heme): inactive | EC50 (Plasmodium falciparum [3]): 8 nM | EC50 (Plasmodium falciparum [4]): 16 nM | EC50 (Plasmodium falciparum [5]): 22 nM

COCCC1(C)CC2(CCCC(C)C2)OO1 (mixture of isomers)
EC50 (Plasmodium falciparum [1]): 69 nM | EC50 (Plasmodium falciparum [2]): 62 nM | Activity (Heme): inactive

C[C@@H]1CC[C@H]2[C@@H](C)C(=O)O[C@@H]3O[C@@]4(C)CC[C@@H]1[C@]32OO4 [ARTEMISININ]
EC50 (Plasmodium falciparum [1]): 4 nM | EC50 (Plasmodium falciparum [2]): 4 nM | EC50 (Plasmodium falciparum [3]): 48 nM | EC50 (Plasmodium falciparum [4]): 8 nM | EC50 (Plasmodium falciparum [5]): 13 nM

CCN(CC)CCCC(C)Nc1ccnc2cc(Cl)ccc12 (stereo unspecified) [CHLOROQUINE]
EC50 (Plasmodium falciparum [1]): 7 nM | EC50 (Plasmodium falciparum [2]): 66 nM | EC50 (Plasmodium falciparum [3]): 46 nM | EC50 (Plasmodium falciparum [4]): 52 nM | EC50 (Plasmodium falciparum [5]): 14 nM

CC1CCCC2(C1)CC(C)(CCOCc1ccccc1)OO2 (mixture of isomers)
EC50 (Plasmodium falciparum [1]): 92 nM | EC50 (Plasmodium falciparum [2]): 151 nM | Activity (Heme): inactive

NCCNc1ccnc2cc(Cl)ccc12
EC50 (Plasmodium falciparum [1]): 57 nM | EC50 (Plasmodium falciparum [2]): 155 nM | Activity (Heme): inactive

CC1(CCOCc2ccccc2)CC2(CCCCC2)OO1 (stereo unspecified)
EC50 (Plasmodium falciparum [1]): 141 nM | EC50 (Plasmodium falciparum [2]): 146 nM | Activity (Heme): inactive

C1CCC2(CC1)OOC1(O2)C2CC3CC(C2)CC1C3 (stereo unspecified)
EC50 (Plasmodium falciparum [6]): 3.67 nM | EC50 (Plasmodium falciparum [7]): 5.3 nM

CC(C)(CO)CC1(C)C[C@]2(CC[C@H](C)CC2)OO1 (stereo partly specified)
EC50 (Plasmodium falciparum [1]): 332 nM | EC50 (Plasmodium falciparum [2]): 897 nM

CC1CCCC2(C1)CC(C)(CC(=O)O)OO2 (mixture of isomers)
EC50 (Plasmodium falciparum [1]): > 1000 nM | EC50 (Plasmodium falciparum [2]): > 1000 nM

CC1(CCOCc2ccccc2)CC2(CCC(C(C)(C)C)CC2)OO1 (mixture of isomers)
EC50 (Plasmodium falciparum [1]): 86 nM | EC50 (Plasmodium falciparum [2]): 74 nM | Activity (Heme): inactive

C1CCC2(CC1)CC1(CCCCC1)OO2
EC50 (Plasmodium falciparum [6]): 195 nM | EC50 (Plasmodium falciparum [7]): 523 nM

CC1CCCC2(C1)CC(C)(CCO)OO2 (mixture of isomers)
EC50 (Plasmodium falciparum [1]): 241 nM | EC50 (Plasmodium falciparum [2]): 149 nM | Activity (Heme): inactive

CC(C)(N)CNC(=O)CC1(C)CC2(CCCCC2)OO1 (stereo unspecified)
EC50 (Plasmodium falciparum [1]): 61 nM | EC50 (Plasmodium falciparum [2]): 108 nM | Activity (Heme): inactive
